Test results as given in article PMC8373216, “Development and Preclinical Evaluation of New Inhaled Lipoglycopeptides for the Treatment of Persistent Pulmonary Methicillin-Resistant Staphylococcus aureus Infections” (Antimicrobial Agents and Chemotherapy, 2021).
Converted amounts (≈) assume the structure as drawn. Where two headings read alike, the source gives them in different places.

Columns and labels:
Streptococcus oralis = test: Expanded panel broth microdilution MIC; assay type: cell-based
Staphylococcus hominis = test: Expanded panel broth microdilution MIC; assay type: cell-based
[1] = system: Staphylococcus lugdunensis; test: Expanded panel broth microdilution MIC; assay type: cell-based
Streptococcus pyogenes = test: Expanded panel broth microdilution MIC/MBC; assay type: cell-based
S. aureus = test: Expanded panel broth microdilution MIC/MBC; details: for MIC: Staphylococcus aureus
Streptococcus agalactiae = test: Expanded panel broth microdilution MIC/MBC; assay type: cell-based
Cutibacterium acnes = test: Expanded panel broth microdilution MIC; assay type: cell-based
[2] = system: Staphylococcus epidermidis; test: Expanded panel broth microdilution MIC/MBC; assay type: cell-based; details: for MIC: Staphylococcus epidermidis
[3] = system: Peptostreptococcus micros; test: Expanded panel broth microdilution MIC; assay type: cell-based
Streptococcus anginosus = test: Expanded panel broth microdilution MIC/MBC; assay type: cell-based; details: for MIC: Streptococcus anginosus
Clostridium. perfringens = test: microbe, parasite or virus in culture; assay type: cell-based
Streptococcus mitis = test: Expanded panel broth microdilution MIC/MBC; assay type: cell-based; details: for MIC: Streptococcus mitis
[4] = system: MRSA ATCC BAA 1556 (USA300); test: In-house broth microdilution MIC screening; assay type: cell-based, Staphylococcus aureus; details: Staphylococcus aureus, read-out: MIC Value, MRSA ATCC BAA 1556
MSSA ATCC 29213 = test: In-house broth microdilution MIC screening; assay type: cell-based; details: Staphylococcus aureus, read-out: MIC Value, MSSA ATCC 29213

`CCCCCCCCCCNCCN[C@@]1(C)C[C@H](O[C@H]2[C@H](Oc3c4cc5cc3Oc3ccc(cc3Cl)[C@@H](O)[C@@H](NC(=O)[C@@H](CC(C)C)NC)C(=O)N[C@@H](CC(N)=O)C(=O)N[C@H]5C(=O)N[C@H]3C(=O)N[C@H](C(=O)N[C@H](C(=O)O)c5cc(O)c(CNCP(=O)(O)O)c(O)c5-c5cc3ccc5O)[C@H](O)c3ccc(c(Cl)c3)O4)O[C@H](CO)[C@@H](O)[C@@H]2O)O[C@@H](C)[C@H]1O` [Telavancin, telavancin] gave an MIC (Streptococcus oralis; S. oralis MGS, 1 isolate) of 0.06 µg/mL (≈ 0.0342 µM), an MIC (Streptococcus oralis; Streptococcus oralis) of 0.06 µg/mL (≈ 0.0342 µM) and an MIC (Staphylococcus hominis) of 0.06 µg/mL (≈ 0.0342 µM). For the same compound, the MIC (Staphylococcus hominis; ATCC27844) was 0.06 µg/mL (≈ 0.0342 µM), the MIC ([1]; S. lugdunensis, 1 isolate) was 0.06 µg/mL (≈ 0.0342 µM) and the MIC ([1]; Staphylococcus lugdunensis) was 0.06 µg/mL (≈ 0.0342 µM). The MIC (Streptococcus pyogenes; S. pyogenes MMX 946, ermR) was 0.06 µg/mL (≈ 0.0342 µM), the “MIC:MBC” value (Streptococcus pyogenes; S. pyogenes ermR) was 1 and the MIC (Streptococcus pyogenes; S. pyogenes ermR, 1 isolate) was 0.06 µg/mL (≈ 0.0342 µM). The MIC (Streptococcus pyogenes; Streptococcus pyogenes) was 0.06 µg/mL (≈ 0.0342 µM), the MIC (Streptococcus pyogenes; Streptococcus pyogenes, ATCC19615) was 0.06 µg/mL (≈ 0.0342 µM) and the MIC (Streptococcus pyogenes; Streptococcus pyogenes, read-out: MIC (median)) was 0.06 µg/mL (≈ 0.0342 µM). For the same compound, the “MIC:MBC” value (S. aureus; S. aureus MRSA, MBC median of n = 5) was 1, the “MIC:MBC” value (S. aureus; S. aureus MSSA, MBC on one organism) was 1 and the “MIC:MBC” value (S. aureus; S. aureus VISA, MBC median of n = 2) was 1. The “MIC:MBC” value (S. aureus; S. aureus hVISA, MBC on one organism) was 1, the MIC (S. aureus; ATCC13709 / MSSA, S. aureus ATCC 13709, MSSA) was 0.12 µg/mL (≈ 0.0684 µM) and the MIC (S. aureus; ATCC29213 / MSSA, S. aureus ATCC 29213, MSSA) was 0.06 µg/mL (≈ 0.0342 µM). It also gave an MIC (S. aureus; ATCC43300 / MRSA, S. aureus ATCC 43300, MRSA) of 0.06 µg/mL (≈ 0.0342 µM), an MIC (S. aureus; ATCCBAA1556|MRSA|USA300, S. aureus ATCC BAA-1556, MRSA, USA300 (expanded panel)) of 0.06 µg/mL (≈ 0.0342 µM) and an MIC (S. aureus; ATCCBAA1756|MRSA|NRS384|USA300, S. aureus NRS 384, ATCC BAA-1756, MRSA, USA300) of 0.06 µg/mL (≈ 0.0342 µM). The MIC (S. aureus; MRSA / NRS123 / USA400, S. aureus NRS123, MRSA, USA400) was 0.06 µg/mL (≈ 0.0342 µM), the MIC (S. aureus; MRSA / NRS725 / USA300, S. aureus NRS725, MRSA, USA300) was 0.06 µg/mL (≈ 0.0342 µM) and the MIC (S. aureus; MRSA / USA300, S. aureus MMX 3982, MRSA, USA300) was 0.06 µg/mL (≈ 0.0342 µM). It also gave an MIC (S. aureus; MRSA, S. aureus MMX 5715, MRSA) of 0.06 µg/mL (≈ 0.0342 µM), an MIC (S. aureus; MRSA, S. aureus MMX 7899, MRSA) of 0.06 µg/mL (≈ 0.0342 µM) and an MIC (S. aureus; MRSA, S. aureus MMX 7900, MRSA) of 0.06 µg/mL (≈ 0.0342 µM). It also gave an MIC (S. aureus; MRSA, S. aureus MMX 7901, MRSA) of 0.03 µg/mL (≈ 0.0171 µM), an MIC (S. aureus; MRSA, S. aureus MMX 7902, MRSA) of 0.06 µg/mL (≈ 0.0342 µM) and an MIC (S. aureus; MRSA, S. aureus MMX 7903, MRSA) of 0.06 µg/mL (≈ 0.0342 µM). It also gave an MIC (S. aureus; MRSA, read-out: MIC (median), S. aureus MRSA, 12 isolates) of 0.06 µg/mL (≈ 0.0342 µM), an MIC (S. aureus; MSSA, S. aureus MMX 7907, MSSA) of 0.06 µg/mL (≈ 0.0342 µM) and an MIC (S. aureus; MSSA, S. aureus MMX 7908, MSSA) of 0.12 µg/mL (≈ 0.0684 µM). The MIC (S. aureus; MSSA, read-out: MIC (median), S. aureus MSSA, 4 isolates) was 0.09 µg/mL (≈ 0.0513 µM), the MIC (S. aureus; NRS1 / VISA, S. aureus NRS1, VISA, Mu50) was 0.5 µg/mL (≈ 0.285 µM) and the MIC (S. aureus; NRS2, S. aureus NRS2, hVISA;Mu3) was 0.12 µg/mL (≈ 0.0684 µM). For the same compound, the MIC (S. aureus; NRS4 / VISA, S. aureus NRS4, VISA) was 0.25 µg/mL (≈ 0.142 µM), the MIC (S. aureus; NRS13 / VISA, S. aureus NRS13, VISA) was 0.12 µg/mL (≈ 0.0684 µM) and the MIC (S. aureus; NRS22 / VISA, S. aureus NRS22, VISA) was 0.5 µg/mL (≈ 0.285 µM). It also gave an MIC (S. aureus; NRS23, S. aureus NRS23, hVISA) of 0.25 µg/mL (≈ 0.142 µM), an MIC (S. aureus; NRS52 / VISA, S. aureus NRS52, VISA) of 0.25 µg/mL (≈ 0.142 µM) and an MIC (S. aureus; VISA, read-out: MIC (median), S. aureus VISA, 5 isolates) of 0.25 µg/mL (≈ 0.142 µM). The MIC (S. aureus; read-out: MIC (median), S. aureus hVISA, 2 isolates) was 0.19 µg/mL (≈ 0.108 µM), the MIC (Streptococcus agalactiae; S. agalactiae MMX 4115, ermR) was 0.06 µg/mL (≈ 0.0342 µM) and the MIC (Streptococcus agalactiae; S. agalactiae ermR, 1 isolate) was 0.06 µg/mL (≈ 0.0342 µM). The “MIC:MBC” value (Streptococcus agalactiae; S. agalactiae, MBC on one organism) was >8, the MIC (Streptococcus agalactiae; Streptococcus agalactiae) was 0.06 µg/mL (≈ 0.0342 µM) and the MIC (Streptococcus agalactiae; Streptococcus agalactiae, ATCC13813) was 0.06 µg/mL (≈ 0.0342 µM). It also gave an MIC (Streptococcus agalactiae; Streptococcus agalactiae, read-out: MIC (median)) of 0.06 µg/mL (≈ 0.0342 µM), an MIC (Cutibacterium acnes; ATCC6919) of 0.03 µg/mL (≈ 0.0171 µM) and an MIC (Cutibacterium acnes; ATCC11827) of 0.015 µg/mL (≈ 0.00854 µM). For the same compound, the MIC (Cutibacterium acnes; read-out: MIC (median)) was 0.02 µg/mL (≈ 0.0114 µM), the “MIC:MBC” value ([2]; S. epidermidis MRSE, MBC on one organism) was 1 and the MIC ([2]; ATCC49134, S. epidermidis ATCC 49134, MSSE) was 0.12 µg/mL (≈ 0.0684 µM). For the same compound, the MIC ([2]; MRSE, S. epidermidis MMX 762, MRSE) was 0.12 µg/mL (≈ 0.0684 µM), the MIC ([2]; MRSE, S. epidermidis MMX 5145, MRSE) was 0.03 µg/mL (≈ 0.0171 µM) and the MIC ([2]; MRSE, read-out: MIC (median), S. epidermidis MRSE, 2 isolates) was 0.12 µg/mL (≈ 0.0684 µM). The MIC ([2]; S. epidermidis MSSE, 1 isolate) was 0.12 µg/mL (≈ 0.0684 µM), the MIC ([3]; P. micros, 1 isolate) was 0.12 µg/mL (≈ 0.0684 µM) and the MIC ([3]; Parvimonas micra) was 0.12 µg/mL (≈ 0.0684 µM). The “MIC:MBC” value (Streptococcus anginosus; S. anginosus AGS) was >8, the MIC (Streptococcus anginosus) was 0.06 µg/mL (≈ 0.0342 µM) and the MIC (Streptococcus anginosus; ATCC33397) was 0.06 µg/mL (≈ 0.0342 µM). For the same compound, the MIC (Clostridium. perfringens) was 0.015 µg/mL (≈ 0.00854 µM), the MIC (Clostridium. perfringens; ATCC13124, read-out: MIC) was 0.015 µg/mL (≈ 0.00854 µM) and the “MIC:MBC” value (Streptococcus mitis; S. mitis MGS, MBC on one organism) was 1. For the same compound, the MIC (Streptococcus mitis) was 0.03 µg/mL (≈ 0.0171 µM), the MIC (Streptococcus mitis; ATCC49456) was 0.06 µg/mL (≈ 0.0342 µM) and the MIC (Streptococcus mitis; read-out: MIC (median)) was 0.05 µg/mL (≈ 0.0285 µM). It also gave an MIC [4] of 0.063 µg/mL (≈ 0.0359 µM) and an MIC (MSSA ATCC 29213) of 0.063 µg/mL (≈ 0.0359 µM).
